Measured values as given in PMC3971528, “Leishmania infantum EndoG Is an Endo/Exo-Nuclease Essential for Parasite Survival” (PLoS ONE, 2014).

Target: T1, LiEndoG (rLiEndoG) (Leishmania infantum, UniProt B0ZTD3)
T1 construct: gene endog; recombinant from pRSET-LiendoG in E. coli BL21(DE3) pLys
T1 sequence (B0ZTD3 1-510): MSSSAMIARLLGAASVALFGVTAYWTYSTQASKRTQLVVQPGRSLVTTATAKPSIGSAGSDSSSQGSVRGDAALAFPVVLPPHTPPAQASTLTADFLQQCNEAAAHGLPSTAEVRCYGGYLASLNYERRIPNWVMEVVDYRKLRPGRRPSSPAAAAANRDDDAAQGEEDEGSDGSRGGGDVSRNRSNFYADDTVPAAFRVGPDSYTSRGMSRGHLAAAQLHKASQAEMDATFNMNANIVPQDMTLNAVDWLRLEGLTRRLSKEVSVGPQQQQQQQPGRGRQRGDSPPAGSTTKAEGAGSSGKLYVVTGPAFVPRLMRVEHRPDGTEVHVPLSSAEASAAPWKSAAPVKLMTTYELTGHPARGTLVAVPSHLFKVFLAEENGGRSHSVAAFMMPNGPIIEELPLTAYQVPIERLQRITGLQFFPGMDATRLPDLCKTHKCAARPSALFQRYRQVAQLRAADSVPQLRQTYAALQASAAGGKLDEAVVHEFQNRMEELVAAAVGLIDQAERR
Experiment: fluorescence nuclease assay, FAM/TAMRA double-stranded oligonucleotide probe
Assay type: biochemical
Settings: inhibitor; 30 pmol probe, 2.5 ng/mL LiEndoG, 40 min; increasing Lei49

Cc1cn([C@H]2C[C@H](OC(=O)CCC(=O)OCCOC(=O)[C@@H](N)C(C)C)[C@@H](COC(c3ccccc3)(c3ccccc3)c3ccccc3)O2)c(=O)[nH]c1=O [Lei49, 2-[(S)-2-Amino-3-methylbutanoyl-oxy]ethyl [(2R,3S,5R)-5-(thymin-1-yl)-2-(trityloximethyl)tetrahydrofuran-3-yl] succinate]
fluorescence nuclease assay, FAM/TAMRA double-stranded oligonucleotide probe: Inhibition of the nuclease activity of LiEndoG by Lei49.
